Tests used:
[1] = test system: 8701-BC breast cancer cells; experiment: Cell proliferation assay (MTT), 8701-BC; assay type: cell-based, human; settings: exponentially growing 8701-BC cells, compounds 0-100 μM, 72 hours, means ± SEM, NA = not active at 100 μM concentration
Protocol: (§1) A431 (2×10^4 cells/mL) were incubated in […] DMEM culture medium (BioWhittaker, Vallensbaek, DK). Differently, 8701-BC (2×10^4 cells/mL) were incubated in 100 μL RPMI 1640 culture medium (BioWhittaker, Vallensbaek, DK). Both cell lines were supplemented with 10% foetal calf serum (FCS; BioWhittaker, Vallensbaek, DK) and antibiotics (100 U/mL penicillin and 100 μg/mL streptomycin), at 37° C. in 5% CO2 for 8 hours, to allow adhesion. After adhesion, the medium was replaced with 100 μL medium supplemented with 0.5% FCS. After an overnight incubation, the medium was replaced and 100 μL DMEM with 10% FCS along with different concentrations (0-100 μM) of the studied compounds were added to cell cultures.
(§2) Following 72 hours, cells were treated with 10 μL of the 3-(4,5-dimethylthiazol-2-yl)-[…] (MTT) solution (5 mg/mL). Four hours later, 100 μL of propan-2-ol in a 0.04 M HCl solution were added to dissolve the formazan product. The microplates were read using an ELISA plate reader at 570 nm with a reference wavelength of 630 nm.

[2] = test system: A431 human epidermoid carcinoma cells; experiment: Cell proliferation assay (MTT), A431; assay type: cell-based; settings: compounds 0-100 μM, 72 hours, means ± SEM, NA = not active at 100 μM concentration
Protocol: as §1, §2

K562 cells = experiment: Cell proliferation assay, K562; assay type: cell-based, human; settings: compounds 0-100 μM, means ± SEM
Protocol: (§3) MEG-01 and K562 (2×10^4 cells/mL) were incubated in 100 μL RPMI 1640 culture medium (BioWhittaker, Vallensbaek, DK), supplemented with 10% foetal calf serum (FCS; BioWhittaker, Vallensbaek, DK) and antibiotics (100 U/mL penicillin and 100 μg/mL streptomycin), at 37° C. in 5% CO2. After an overnight incubation with 100 μL medium supplemented with 0.5% FCS, the medium was replaced and 100 μL RPMI 1640 with 10% FCS along with different concentrations (0-100 μM) of the studied compounds, were added to cell cultures.

Meg-01 cells = experiment: Cell proliferation assay, Meg-01; assay type: cell-based, human; settings: compounds 0-100 μM, means ± SEM
Protocol: as §3

Src (Tyr416) = target: T1, Src (Tyr416) (Homo sapiens, UniProt P12931); experiment: Phospho-Src inhibition, immunoblot, 8701-BC cells after EGF stimulation; assay type: cell-based
T1 construct: subjected to immunoblot using phospho-specific antibodies against Src (Y416) and non pospho-specific Src as control; endogenous in cells; host or cells: 8701-BC breast cancer cells
Protocol: FIG. 3. […] Immunoblot analysis was performed using phospho-specific antibodies to Src (Tyr416). Filters were additionally reprobed with specific non-phospho anti-Src antibodies after stripping. Lane 1: cell control; lane 2: cells treated for 15 min with EGF (100 nM); lane 3-7: cells challenged for 3 h in the presence of 10 μM of the specified compound and then treated for 15 min with EGF (100 nM).
Immunoblot analysis was performed using phospho-specific antibodies to Src (Tyr416). Filters were additionally reprobed with specific non-phospho anti-Src antibodies after stripping.
Cells were treated as reported above but the cells were challenged with the compounds for 3 h, and then treated with 100 nM EGF (Cell Signaling Technology, MA, U.S.A.). […] later, cells were harvested and lysed in an appropriate buffer containing 1% Triton X-100. Proteins were quantitated by the BCA method (Pierce Rockford, U.S.A.). Equal amounts of total cellular protein were resolved by SDS-polyacrylamide gel electrophoresis, transferred to nitrocellulose filters and subjected to immunoblot using phospho-specific antibodies against Src (Y416) and non pospho-specific Src as control (Cell Signaling Technology, MA, U.S.A.).

[3] = 10 μM compound 3 h, then 100 nM EGF 15 min, immuno blot gel area

T1 sequence (P12931 whole entry): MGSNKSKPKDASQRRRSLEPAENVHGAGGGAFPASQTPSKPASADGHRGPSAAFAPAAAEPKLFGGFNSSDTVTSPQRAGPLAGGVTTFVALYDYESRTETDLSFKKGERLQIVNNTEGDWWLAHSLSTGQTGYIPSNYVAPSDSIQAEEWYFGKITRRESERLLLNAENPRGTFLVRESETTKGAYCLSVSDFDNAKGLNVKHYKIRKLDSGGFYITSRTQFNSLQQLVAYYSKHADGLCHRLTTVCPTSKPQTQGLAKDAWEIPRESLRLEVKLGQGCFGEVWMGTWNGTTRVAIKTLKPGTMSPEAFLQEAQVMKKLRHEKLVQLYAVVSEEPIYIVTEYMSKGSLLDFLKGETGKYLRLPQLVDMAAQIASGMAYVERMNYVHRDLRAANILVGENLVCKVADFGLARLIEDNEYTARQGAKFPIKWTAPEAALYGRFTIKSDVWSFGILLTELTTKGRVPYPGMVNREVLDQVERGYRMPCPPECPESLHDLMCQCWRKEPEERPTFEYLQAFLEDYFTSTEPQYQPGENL

Work on CSc1nc(NC2CCCCC2)c2cnn(CC(Cl)c3ccccc3)c2n1 (centres unmarked) [Compound 1k] yielded an IC50 [1] of 35.3 ± 0.5 µM and an IC50 [2] of 43.8 ± 0.7 µM.

With OC(Cn1ncc2c(NCCc3ccccc3)ncnc21)c1ccccc1 (centres unmarked) [Compound 3f] the IC50 [1] was 45.6 ± 0.5 µM and the IC50 [2] was 80.1 ± 2.5 µM.

C(=Cn1ncc2c(N3CCCC3)ncnc21)c1ccccc1 [Compound 4g] showed an IC50 [1] of 50.4 ± 0.1 µM and an IC50 [2] of 63.1 ± 1 µM.

C(=Cn1ncc2c(NCCc3ccccc3)ncnc21)c1ccccc1 [Compound 4j] gave an IC50 [1] of 64.7 ± 0.6 µM and an IC50 [2] of 15 ± 1.2 µM.

CSc1nc(N2CCOCC2)c2cnn(CC(Cl)c3ccccc3)c2n1 (centres unmarked) [Compound 1b] showed an IC50 [1] of 64.2 µM and an IC50 [2] of 26.9 ± 0.4 µM.

CCN(CC)c1nc(SC)nc2c1cnn2CC(Cl)c1ccccc1 (centres unmarked) [Compound 1h] was tested, and the IC50 [1] was 86.9 ± 1.2 µM and the IC50 [2] was 70.2 ± 1.4 µM.

Compound CSc1nc(N2CCCCC2)c2cnn(C=Cc3ccccc3)c2n1 [Compound 4m] has an IC50 [2] of 54.1 ± 0.7 µM.

Compound C(=Cn1ncc2c(N3CCCCCC3)ncnc21)c1ccccc1 [Compound 4d] has an IC50 [1] of 93.7 ± 0.6 µM and an IC50 [2] of 43.6 ± 1.3 µM.

CSc1nc(N2CCOCC2)c2cnn(C=Cc3ccccc3)c2n1 [Compound 4n] showed an IC50 [2] of 35.7 ± 0.6 µM.

For CCSc1nc(N2CCOCC2)c2cnn(C=Cc3ccccc3)c2n1 [Compound 4k], the IC50 [2] was 49.8 ± 0.8 µM, the IC50 (K562 cells) was 75.1 ± 1.7 µM and the IC50 (Meg-01 cells) was 12.1 ± 1.1 µM.

Compound OC(Cn1ncc2c(NCc3ccccc3)ncnc21)c1ccccc1 (centres unmarked) [Compound 3e] has an IC50 [2] of 12.7 ± 0.7 µM.

With OC(Cn1ncc2c(N3CCCCC3)ncnc21)c1ccccc1 (centres unmarked) [Compound 3c] the IC50 [2] was 13.4 ± 0.2 µM.

C(=Cn1ncc2c(NCc3ccccc3)ncnc21)c1ccccc1 [Compound 4i] gave an IC50 [1] of 65 ± 0.3 µM and an IC50 [2] of 11.7 ± 0.1 µM.

Compound CSc1nc(NCc2ccccc2)c2cnn(C=Cc3ccccc3)c2n1 [Compound 4l] has an IC50 [2] of 39.8 ± 0.6 µM.

CSc1nc(NCc2ccccc2)c2cnn(CC(Cl)c3ccccc3)c2n1 (centres unmarked) [Compound 1e] was tested, and the IC50 [1] was 53.2 ± 1.2 µM and the IC50 [2] was 24.6 ± 0.7 µM.

CCCCNc1nc(SCC)nc2c1cnn2CC(Cl)c1ccccc1 (centres unmarked) [Compound 2c] gave an IC50 [1] of 38.8 ± 0.5 µM, an IC50 [2] of 40.2 ± 0.4 µM and an IC50 (K562 cells) of 27.4 ± 0.6 µM.

CSc1nc(NCCc2ccccc2)c2cnn(CC(Cl)c3ccccc3)c2n1 (centres unmarked) [Compound 1f] was tested, and the IC50 [1] was 31.2 µM, the IC50 [2] was 27.1 ± 0.2 µM and the “Phospho-Src/Non-phospho-Src ratio (%)” value (Src (Tyr416); 10 μM compound 3 h, then 100 nM EGF 15 min, Control + EGF 56, Control 23) was 9%. The Non-phospho-Src (Src (Tyr416); [3]) was 168 area units, the “Phospho-Src (Tyr416)” value (Src (Tyr416); [3]) was 15 area units and the “inhibition of Src phosphorylation compared with PP2 (in words)” value (Src (Tyr416); immunoblot, phospho-specific antibodies to Src (Tyr416)) was “inhibit Src phosphorylation better than the reference compound PP2”.

CCCCNc1ncnc2c1cnn2CC(O)c1ccccc1 (centres unmarked) [Compound 3b] was tested, and the IC50 [2] was 83.2 ± 1.8 µM.

CSc1nc(N2CCCC2)c2cnn(CC(Cl)c3ccccc3)c2n1 (centres unmarked) [Compound 1i] gave an IC50 [1] of 56.3 ± 2 µM and an IC50 [2] of 32.3 ± 0.8 µM.

With COc1cc2ncnc(Nc3cccc(Cl)c3)c2cc1OC [AG1478, reference compound] the IC50 [2] was 20.2 ± 0.4 µM.

Work on CCSc1nc(N2CCCC2)c2cnn(CC(Cl)c3ccccc3)c2n1 (centres unmarked) [Compound 2e] yielded an IC50 [1] of 72.1 ± 1.7 µM and an IC50 [2] of 89.3 ± 1.7 µM.

In the case of CSc1nc(N2CCCCC2)c2cnn(CC(Cl)c3ccccc3)c2n1 (centres unmarked) [Compound 1a], the IC50 [1] is reported as 67.5 ± 1.2 µM and the IC50 [2] is reported as 37.6 ± 0.8 µM.

CCCCNc1ncnc2c1cnn2C=Cc1ccccc1 [Compound 4c] showed an IC50 [1] of 80.5 ± 6.8 µM and an IC50 [2] of 91.5 ± 2 µM.

C(=Cn1ncc2c(N3CCOCC3)ncnc21)c1ccccc1 [Compound 4b] showed an IC50 [1] of 58.8 ± 0.7 µM and an IC50 [2] of 59.2 ± 1 µM.

With BrC(Cn1ncc2c(NC3CCCCC3)ncnc21)c1ccccc1 (centres unmarked) [Compound 5i] the IC50 [2] was 28.2 ± 0.4 µM, the IC50 (K562 cells) was 38.2 ± 0.8 µM and the IC50 (Meg-01 cells) was 32.7 ± 0.3 µM.

With OC(Cn1ncc2c(N3CCOCC3)ncnc21)c1ccccc1 (centres unmarked) [Compound 3a] the IC50 [2] was 86.9 ± 2.1 µM.

With C(=Cn1ncc2c(N3CCCCC3)ncnc21)c1ccccc1 [Compound 4a] the IC50 [2] was 69.3 ± 1.2 µM.

Compound CCCNc1nc(SC)nc2c1cnn2CC(Cl)c1ccccc1 (centres unmarked) [Compound 1g] has an IC50 [1] of 64.1 ± 0.5 µM and an IC50 [2] of 32.1 ± 0.5 µM.

CCCCNc1ncnc2c1cnn2CC(Br)c1ccccc1 (centres unmarked) [Compound 5d] showed an IC50 [2] of 33.6 ± 1.2 µM, an IC50 (K562 cells) of 34.3 ± 0.9 µM and an IC50 (Meg-01 cells) of 19.4 ± 0.4 µM.

Work on OC(Cn1ncc2c(NCc3ccc(F)cc3)ncnc21)c1ccccc1 (centres unmarked) [Compound 3g] yielded an IC50 [1] of 54.4 ± 1.5 µM and an IC50 [2] of 95.7 ± 2.3 µM.

Work on CCSc1nc(NCc2ccccc2)c2cnn(CC(Cl)c3ccccc3)c2n1 (centres unmarked) [Compound 2f] yielded an IC50 [1] of 42.8 ± 0.8 µM.

CCCNc1ncnc2c1cnn2C=Cc1ccccc1 [Compound 4e] showed an IC50 [1] of 57.2 ± 0.8 µM and an IC50 [2] of 61.2 ± 1 µM.

CSc1nc(N2CCCCCC2)c2cnn(CC(Cl)c3ccccc3)c2n1 (centres unmarked) [Compound 1j] showed an IC50 [1] of 54.4 ± 0.8 µM.

In the case of CCCNc1ncnc2c1cnn2CC(O)c1ccccc1 (centres unmarked) [Compound 3d], the IC50 [2] is reported as 91.2 ± 1.4 µM.

With CCCCNc1nc(SC)nc2c1cnn2CC(Cl)c1ccccc1 (centres unmarked) [Compound 1d] the IC50 [1] was 63.8 ± 2.1 µM and the IC50 [2] was 27.4 ± 0.5 µM.

Compound CCCNc1nc(SCC)nc2c1cnn2CC(Cl)c1ccccc1 (centres unmarked) [Compound 2d] has an IC50 [1] of 28.6 ± 1.6 µM and an IC50 [2] of 79.4 ± 1.8 µM.

Compound CCOCCNc1ncnc2c1cnn2C=Cc1ccccc1 [Compound 4f] has an IC50 [1] of 43.4 ± 0.4 µM.

CCOCCNc1nc(SC)nc2c1cnn2CC(Cl)c1ccccc1 (centres unmarked) [Compound 1c] gave an IC50 [1] of 59.8 ± 3.1 µM and an IC50 [2] of 32.4 ± 0.6 µM.

C(=Cn1ncc2c(NC3CCCCC3)ncnc21)c1ccccc1 [Compound 4h] showed an IC50 [1] of 50.5 ± 1.3 µM.

With CCSc1nc(N2CCOCC2)c2cnn(CC(Cl)c3ccccc3)c2n1 (centres unmarked) [Compound 2b] the IC50 [1] was 79.8 ± 3 µM and the IC50 [2] was 42.3 ± 0.7 µM.

Reference: patent US7589086B2, “Substituted pyrazolo[3,4-D]pyrimidines as anti-tumor agents” (Universita degli Studi di Siena, priority 2003, dated 2009)
